The values below come from ChEMBL document CHEMBL1201862, “PubChem BioAssay data set” (2004).

Test systems include SK-MEL-2; KM12; MDA-N; 786-0; EKVX; RXF 393; K562; M14; NCI-H23; A498; HOP-62; Malme-3M; MDA-MB-435; HOP-92; MDA-MB-231; ACHN; UACC-257; OVCAR-4; COLO 205; UACC-62.
Experiment in all cases: NCI anticancer screen, dose series, 48 h

Where a name gives a salt, the structure may show the parent alone.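 Interpolation was linear, between the two tested concentrations surrounding the appropriate level; five concentrations were tested over 48 hours in 96-well plates. At the GI50, growth is halved.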 Active and inactive are the calls of the source. No stated cut-off is given here; in the data, active = GI50 up to about 1.1 µM and inactive = higher. Some results are limits rather than exact numbers.

For `NS(=O)(=O)c1ccc(Nc2c3ccccc3nc3c(C(=O)NCCO)cccc23)cc1`, the GI50 with SK-MEL-2 was 0.186 µM (active); in the assay with KM12, 0.137 µM (active); in the assay on MDA-N it was 0.196 µM (active); in the assay on 786-0 it was 0.145 µM (active); in the assay with EKVX it was 0.251 µM (active); in the assay on RXF 393, 0.0857 µM (active). For the same molecule, the GI50 in the assay on K562 is 0.13 µM (active); in the assay on M14, 0.182 µM (active); with NCI-H23, 0.132 µM (active); in the assay on A498, 0.105 µM (active); in the assay with HOP-62, 0.167 µM (active); in the assay with Malme-3M it was 0.13 µM (active). In addition, the GI50 with MDA-MB-435 is 0.203 µM (active); in the assay on HOP-92, 0.148 µM (active); with MDA-MB-231, 0.184 µM (active); in the assay on ACHN, 0.252 µM (active); in the assay on UACC-257, 0.17 µM (active); in the assay with OVCAR-4, 0.195 µM (active). The GI50 was 0.0762 µM (active) in the assay with COLO 205 and 0.135 µM (active) in the assay with UACC-62.
Regarding `CCOC(=O)C(=O)/C(=C\NC(=S)Nc1ccccc1Cl)C(=O)OCC`, the GI50 in the assay on SK-MEL-2, in the assay with KM12, in the assay with MDA-N, with 786-0, in the assay on EKVX and with RXF 393 was > 100 µM (inactive) each time. The GI50 in the assay with K562, in the assay on M14, in the assay with NCI-H23, in the assay with A498, in the assay on HOP-62 and in the assay on Malme-3M was > 100 µM (inactive) in each case. Also, the GI50 in the assay on MDA-MB-435 is > 100 µM (inactive); in the assay on HOP-92, 3.59 µM (inactive); with MDA-MB-231, > 100 µM (inactive); with ACHN, > 100 µM (inactive); with UACC-257, > 100 µM (inactive); with OVCAR-4, > 100 µM (inactive). Also, the GI50 in the assay with COLO 205 and in the assay on UACC-62 was > 100 µM (inactive) throughout.
Consider `C[C@@H]1C[C@@H](O)[C@]2(O)O[C@@H]3C[C@@]4(C=O)[C@@H](CC[C@@H]5[C@@H]4CC[C@]4(C)[C@@H](C6=CC(=O)OC6)CC[C@]54O)C[C@H]3O[C@@H]2O1` [CALACTIN], for which the GI50 in the assay on SK-MEL-2 is 0.0114 µM (active); in the assay with KM12, 0.0226 µM (active); in the assay on MDA-N, 0.0538 µM (active); in the assay on 786-0, 0.00617 µM (active); with EKVX, 0.0244 µM (active); with RXF 393, 0.0194 µM (active). In addition, the GI50 was 0.0179 µM (active) in the assay with K562; 0.0222 µM (active) with M14; 0.00222 µM (active) in the assay on NCI-H23; 0.0208 µM (active) with A498; 0.00671 µM (active) with HOP-62; 0.0119 µM (active) in the assay on Malme-3M. Moreover, the GI50 in the assay with MDA-MB-435 was 0.0441 µM (active); with HOP-92, 0.0276 µM (active); in the assay on MDA-MB-231, 0.0153 µM (active); in the assay with ACHN, 0.00283 µM (active); in the assay on UACC-257 it was 0.0213 µM (active); with OVCAR-4, 0.0222 µM (active). The figures for the GI50 with COLO 205 and with UACC-62 were 0.0221 µM (active) and 0.016 µM (active), respectively.
For the molecule `CCOC(=O)c1nc2ccc(C(F)(F)F)cc2nc1Oc1cc(OC)cc(OC)c1`, the GI50 in the assay with SK-MEL-2 was > 100 µM (inactive); in the assay with KM12, 36.8 µM (inactive); in the assay on MDA-N it was > 100 µM (inactive); in the assay with 786-0, > 100 µM (inactive); with EKVX, > 100 µM (inactive); with RXF 393, > 100 µM (inactive). The GI50 in the assay with K562 was > 100 µM (inactive); with M14, > 100 µM (inactive); in the assay on A498, > 100 µM (inactive); in the assay with HOP-62, 65.6 µM (inactive); in the assay on Malme-3M, 35.8 µM (inactive); in the assay with MDA-MB-435, 77.6 µM (inactive). Also, the GI50 in the assay with HOP-92 was 40.1 µM (inactive); with MDA-MB-231, > 100 µM (inactive); with ACHN it was > 100 µM (inactive); with UACC-257, > 100 µM (inactive); in the assay with OVCAR-4, 26.4 µM (inactive); in the assay on COLO 205 it was > 100 µM (inactive). Also, in the assay with UACC-62, the GI50 is > 100 µM (inactive).
`Cc1c(NC(=S)Nc2ccc([N+](=O)[O-])cc2)c(=O)n(-c2ccccc2)n1C`: the GI50 was > 100 µM (inactive) with KM12; > 100 µM (inactive) in the assay on MDA-N; > 100 µM (inactive) in the assay on 786-0; > 100 µM (inactive) in the assay on EKVX; > 100 µM (inactive) in the assay with RXF 393; 69.5 µM (inactive) in the assay with K562. Also, the GI50 in the assay with M14, with NCI-H23, in the assay on A498, in the assay on HOP-62, in the assay on Malme-3M and in the assay on MDA-MB-435 was > 100 µM (inactive) throughout. For the same molecule, the GI50 in the assay on HOP-92, in the assay with MDA-MB-231, with ACHN, in the assay on UACC-257, in the assay with COLO 205 and in the assay with UACC-62 was > 100 µM (inactive) each time.
As to `CCC1C(=O)C(O)[C@H]2[C@@H]3C(O)CC4=CC(=O)CC[C@]4(C)[C@H]3CC[C@]12C` (stereo not given in full), the GI50 in the assay on SK-MEL-2, in the assay with KM12, in the assay with MDA-N, in the assay on 786-0, in the assay with EKVX and with K562 was > 50 µM (inactive) throughout. Moreover, the GI50 in the assay with M14, in the assay on NCI-H23, with A498, in the assay with HOP-62, in the assay on Malme-3M and in the assay with MDA-MB-435 was > 50 µM (inactive) each time. Also, the GI50 with HOP-92, with MDA-MB-231, in the assay on ACHN, with UACC-257, in the assay on COLO 205 and in the assay with UACC-62 was > 50 µM (inactive) in each case.
On to `CC1=C(CO)C2=C(C)C3(CC3)[C@@](C)(O)C(=O)C2=C1` [IROFULVEN], for which the GI50 was 0.196 µM (active) in the assay with SK-MEL-2; 0.697 µM (active) in the assay with KM12; 1.04 µM (active) in the assay on MDA-N; 0.199 µM (active) in the assay on 786-0; 0.19 µM (active) in the assay with EKVX; 0.0507 µM (active) with RXF 393. Further, the GI50 in the assay on K562 is 3.37 µM (inactive); with M14, 0.258 µM (active); with NCI-H23, 0.0877 µM (active); in the assay with A498 it was 0.179 µM (active); in the assay on HOP-62 it was 0.161 µM (active); with Malme-3M, 0.218 µM (active). Further, the GI50 with MDA-MB-435 is 1.47 µM (inactive); in the assay with HOP-92, 0.309 µM (active); in the assay on MDA-MB-231, 0.303 µM (active); in the assay on ACHN, 0.262 µM (active); with UACC-257, 0.227 µM (active); in the assay on OVCAR-4 it was 0.237 µM (active). Further, the GI50 in the assay with COLO 205 was 0.166 µM (active).
`COc1ccc(/C=C2\N=C(SC)N(CN3CCOCC3)C2=O)cc1`: the GI50 was > 100 µM (inactive) in the assay on SK-MEL-2; 78.3 µM (inactive) in the assay with KM12; 71.1 µM (inactive) in the assay with MDA-N; 70.6 µM (inactive) in the assay with 786-0; 55.2 µM (inactive) with EKVX; 39 µM (inactive) in the assay with K562. In addition, the GI50 was 55 µM (inactive) in the assay on M14; > 100 µM (inactive) in the assay on NCI-H23; 34 µM (inactive) with A498; 69.7 µM (inactive) in the assay with HOP-62; 72.6 µM (inactive) with Malme-3M; 74.8 µM (inactive) in the assay with MDA-MB-435. Further, the GI50 in the assay with HOP-92 is 5.38 µM (inactive); with MDA-MB-231, > 100 µM (inactive); in the assay on ACHN, 43.3 µM (inactive); in the assay on OVCAR-4, 18.6 µM (inactive); in the assay with COLO 205, 36.3 µM (inactive); in the assay on UACC-62 it was 40.2 µM (inactive).
For `c1csc(-c2nnc(C34CC5CC(CC(C5)C3)C4)o2)c1`, the GI50 was 24.5 µM (inactive) with SK-MEL-2; 52 µM (inactive) in the assay on KM12; 37.7 µM (inactive) in the assay on MDA-N; 24.7 µM (inactive) in the assay on 786-0; 44.1 µM (inactive) in the assay with EKVX; 23.3 µM (inactive) in the assay on RXF 393. Also, the GI50 in the assay on K562 was 34 µM (inactive); in the assay with M14, 37.2 µM (inactive); with NCI-H23 it was 42.7 µM (inactive); in the assay with A498, 16.9 µM (inactive); in the assay on HOP-62 it was 29.4 µM (inactive); in the assay on Malme-3M, 16.4 µM (inactive). Further, the GI50 in the assay with MDA-MB-435 is 36.5 µM (inactive); in the assay on HOP-92, 29.1 µM (inactive); in the assay on MDA-MB-231, 17.7 µM (inactive); with ACHN, 33.3 µM (inactive); in the assay on OVCAR-4, 34.2 µM (inactive); with COLO 205, 17.5 µM (inactive). Also, in the assay on UACC-62, the GI50 was 36.2 µM (inactive).
Turning to `NCCCNCCCCNCCCN` [SPERMINE TETRAHYDROCHLORIDE], the GI50 in the assay with SK-MEL-2 was > 100 µM (inactive); in the assay with KM12, > 100 µM (inactive); in the assay on MDA-N, 15.2 µM (inactive); in the assay with 786-0, 1.46 µM (inactive); in the assay on EKVX, 17.8 µM (inactive); in the assay on RXF 393 it was 14.1 µM (inactive). Further, the GI50 is 2.33 µM (inactive) in the assay with K562; 9.66 µM (inactive) in the assay with M14; 67 µM (inactive) in the assay on NCI-H23; > 100 µM (inactive) with A498; > 100 µM (inactive) in the assay with HOP-62; 93.1 µM (inactive) in the assay with Malme-3M. Moreover, the GI50 in the assay with MDA-MB-435 is > 41.2 µM (inactive); in the assay on HOP-92, 1.93 µM (inactive); in the assay with MDA-MB-231 it was > 43.6 µM (inactive); in the assay with ACHN, 4.12 µM (inactive); in the assay with UACC-257 it was > 71.1 µM (inactive); in the assay on COLO 205, 4.67 µM (inactive). Further, the GI50 in the assay on UACC-62 was > 100 µM (inactive).
